Measurements taken from article PMC6106931 (Alzheimer's Research & Therapy, 2018).

Assay: Clinical safety, Study ALZ1005
Assay type: in vivo, human
[1] = MCI due to AD, JNJ-54861911 total, N=20
[2] = both atabecestat groups, 3 of 31 patients
[3] = preclinical AD, JNJ-54861911 total, N=11

Method: Safety and tolerability were assessed during the study by recording adverse events (AEs), clinically significant abnormalities, clinical laboratory tests, ECG, and vital signs and by performing physical, neurological, and MRI examinations. All enrolled participants were included in the safety analysis population.

C[C@@]1(c2cc(NC(=O)c3ccc(C#N)cn3)ccc2F)C=CSC(N)=N1 [atabecestat]
TEAE: Psoriasis [1]: ^0 n (%)
TEAE: Psychiatric disorders [1]: ^2 (10.0) n (%)
TEAE: Renal and urinary disorders [1]: ^1 (5.0) n (%)
TEAE: Renal colic [1]: ^1 (5.0) n (%)
TEAE: Reproductive system and breast disorders [1]: ^1 (5.0) n (%)
TEAE: Skin and subcutaneous tissue disorders [1]: ^2 (10.0) n (%)
TEAE: Somnolence [1]: ^0 n (%)
TEAE: Syncope [1]: ^0 n (%)
TEAE: Urticaria [1]: ^0 n (%)
TEAE: Vascular disorders [1]: ^0 n (%)
TEAE: Vulvovaginal candidiasis [1]: ^1 (5.0) n (%)
TEAE: Vulvovaginal pruritus [1]: ^1 (5.0) n (%)
TEAE accidental overdose (both atabecestat groups, 2 patients): 6.5%
TEAE psychiatric disorders [2]: 9.7%
TEAE skin and subcutaneous tissue disorders [2]: 9.7%
TEAE post-lumbar puncture syndrome (both atabecestat groups, 4 patients): 12.9%
TEAE SOC injury, poisoning, and procedural complications (both atabecestat groups, 5 of 31 patients): 16.1%
changes from baseline in clinical laboratory analytes, liver function tests, vital signs, neurologic and physical examinations (both studies): no clinically significant trends
deaths or TEAEs leading to discontinuation (both studies): no deaths or TEAEs leading to discontinuation
ECG parameters, mean and median changes over time from predose (early AD population): no treatment- or dose-related changes
Subjects with any TEAE (preclinical AD, 10 mg, N=5): ^1 (20.0%) n (%)
TEAE: Accidental overdose (preclinical AD, 10 mg, N=5): ^0 n (%)
TEAE: Anxiety (preclinical AD, 10 mg, N=5): ^0 n (%)
TEAE: Bladder cancer (preclinical AD, 10 mg, N=5): ^0 n (%)
TEAE: Conjunctivitis (preclinical AD, 10 mg, N=5): ^0 n (%)
TEAE: Dementia Alzheimer’s type (preclinical AD, 10 mg, N=5): ^0 n (%)
TEAE: Depressed mood (preclinical AD, 10 mg, N=5): ^0 n (%)
TEAE: Dermatitis allergic (preclinical AD, 10 mg, N=5): ^0 n (%)
TEAE: Dizziness (preclinical AD, 10 mg, N=5): ^0 n (%)
TEAE: Eczema vesicular (preclinical AD, 10 mg, N=5): ^0 n (%)
TEAE: Fatigue (preclinical AD, 10 mg, N=5): ^0 n (%)
TEAE: Gastrointestinal disorders (preclinical AD, 10 mg, N=5): ^0 n (%)
TEAE: General disorders and administration site conditions (preclinical AD, 10 mg, N=5): ^0 n (%)
TEAE: Headache (preclinical AD, 10 mg, N=5): ^0 n (%)
TEAE: Hypertension (preclinical AD, 10 mg, N=5): ^1 (20.^0) n (%)
TEAE: Infections and infestations (preclinical AD, 10 mg, N=5): ^0 n (%)
TEAE: Injury, poisoning and procedural complications (preclinical AD, 10 mg, N=5): ^0 n (%)
TEAE: Insomnia (preclinical AD, 10 mg, N=5): ^0 n (%)
TEAE: Irritability (preclinical AD, 10 mg, N=5): ^0 n (%)
TEAE: Musculoskeletal and connective tissue disorders (preclinical AD, 10 mg, N=5): ^0 n (%)
TEAE: Nasopharyngitis (preclinical AD, 10 mg, N=5): ^0 n (%)
TEAE: Nausea (preclinical AD, 10 mg, N=5): ^0 n (%)
TEAE: Neck pain (preclinical AD, 10 mg, N=5): ^0 n (%)
TEAE: Neoplasms benign, malignant and unspecified (preclinical AD, 10 mg, N=5): ^0 n (%)
TEAE: Nervous system disorders (preclinical AD, 10 mg, N=5): ^0 n (%)
TEAE: Post lumbar puncture syndrome (preclinical AD, 10 mg, N=5): ^0 n (%)
TEAE: Psoriasis (preclinical AD, 10 mg, N=5): ^0 n (%)
TEAE: Psychiatric disorders (preclinical AD, 10 mg, N=5): ^0 n (%)
TEAE: Renal and urinary disorders (preclinical AD, 10 mg, N=5): ^0 n (%)
TEAE: Renal colic (preclinical AD, 10 mg, N=5): ^0 n (%)
TEAE: Reproductive system and breast disorders (preclinical AD, 10 mg, N=5): ^0 n (%)
TEAE: Skin and subcutaneous tissue disorders (preclinical AD, 10 mg, N=5): ^0 n (%)
TEAE: Somnolence (preclinical AD, 10 mg, N=5): ^0 n (%)
TEAE: Syncope (preclinical AD, 10 mg, N=5): ^0 n (%)
TEAE: Urticaria (preclinical AD, 10 mg, N=5): ^0 n (%)
TEAE: Vascular disorders (preclinical AD, 10 mg, N=5): ^1 (20.0) n (%)
TEAE: Vulvovaginal candidiasis (preclinical AD, 10 mg, N=5): ^0 n (%)
TEAE: Vulvovaginal pruritus (preclinical AD, 10 mg, N=5): ^0 n (%)
Subjects with any TEAE (preclinical AD, 50 mg, N=6): ^2 (33.3) n (%)
TEAE: Accidental overdose (preclinical AD, 50 mg, N=6): ^0 n (%)
TEAE: Anxiety (preclinical AD, 50 mg, N=6): ^0 n (%)
TEAE: Bladder cancer (preclinical AD, 50 mg, N=6): ^0 n (%)
TEAE: Conjunctivitis (preclinical AD, 50 mg, N=6): ^0 n (%)
TEAE: Dementia Alzheimer’s type (preclinical AD, 50 mg, N=6): ^0 n (%)
TEAE: Depressed mood (preclinical AD, 50 mg, N=6): ^0 n (%)
TEAE: Dermatitis allergic (preclinical AD, 50 mg, N=6): ^0 n (%)
TEAE: Dizziness (preclinical AD, 50 mg, N=6): ^0 n (%)
TEAE: Eczema vesicular (preclinical AD, 50 mg, N=6): ^0 n (%)
TEAE: Fatigue (preclinical AD, 50 mg, N=6): ^1 (16.7^) n (%)
TEAE: Gastrointestinal disorders (preclinical AD, 50 mg, N=6): ^0 n (%)
TEAE: General disorders and administration site conditions (preclinical AD, 50 mg, N=6): ^1 (16.7) n (%)
TEAE: Headache (preclinical AD, 50 mg, N=6): ^0 n (%)
TEAE: Hypertension (preclinical AD, 50 mg, N=6): ^0 n (%)
TEAE: Infections and infestations (preclinical AD, 50 mg, N=6): ^0 n (%)
TEAE: Injury, poisoning and procedural complications (preclinical AD, 50 mg, N=6): ^1 (16.7) n (%)
TEAE: Insomnia (preclinical AD, 50 mg, N=6): ^1 (16.^7) n (%)
TEAE: Irritability (preclinical AD, 50 mg, N=6): ^0 n (%)
TEAE: Musculoskeletal and connective tissue disorders (preclinical AD, 50 mg, N=6): ^0 n (%)
TEAE: Nasopharyngitis (preclinical AD, 50 mg, N=6): ^0 n (%)
TEAE: Nausea (preclinical AD, 50 mg, N=6): ^0 n (%)
TEAE: Neck pain (preclinical AD, 50 mg, N=6): ^0 n (%)
TEAE: Neoplasms benign, malignant and unspecified (preclinical AD, 50 mg, N=6): ^0 n (%)
TEAE: Nervous system disorders (preclinical AD, 50 mg, N=6): ^0 n (%)
TEAE: Post lumbar puncture syndrome (preclinical AD, 50 mg, N=6): ^1 (16.7^) n (%)
TEAE: Psoriasis (preclinical AD, 50 mg, N=6): ^1 (16.^7) n (%)
TEAE: Psychiatric disorders (preclinical AD, 50 mg, N=6): ^1 (16.^7) n (%)
TEAE: Renal and urinary disorders (preclinical AD, 50 mg, N=6): ^0 n (%)
TEAE: Renal colic (preclinical AD, 50 mg, N=6): ^0 n (%)
TEAE: Reproductive system and breast disorders (preclinical AD, 50 mg, N=6): ^0 n (%)
TEAE: Skin and subcutaneous tissue disorders (preclinical AD, 50 mg, N=6): ^1 (16.^7) n (%)
TEAE: Somnolence (preclinical AD, 50 mg, N=6): ^0 n (%)
TEAE: Syncope (preclinical AD, 50 mg, N=6): ^0 n (%)
TEAE: Urticaria (preclinical AD, 50 mg, N=6): ^1 (16.^7) n (%)
TEAE: Vascular disorders (preclinical AD, 50 mg, N=6): ^0 n (%)
TEAE: Vulvovaginal candidiasis (preclinical AD, 50 mg, N=6): ^0 n (%)
TEAE: Vulvovaginal pruritus (preclinical AD, 50 mg, N=6): ^0 n (%)
Subjects with any TEAE [3]: ^3 (27.3) n (%)
TEAE: Fatigue [3]: ^1 (9.1) n (%)
TEAE: General disorders and administration site conditions [3]: ^1 (9.1) n (%)
TEAE: Hypertension [3]: ^1 (9.1) n (%)
TEAE: Injury, poisoning and procedural complications [3]: ^1 (9.1) n (%)
TEAE: Insomnia [3]: ^1 (9.1) n (%)
TEAE: Nervous system disorders [3]: ^0 n (%)
TEAE: Post lumbar puncture syndrome [3]: ^1 (9.1) n (%)
TEAE: Psoriasis [3]: ^1 (9.1) n (%)
TEAE: Psychiatric disorders [3]: ^1 (9.1) n (%)
TEAE: Skin and subcutaneous tissue disorders [3]: ^1 (9.1) n (%)
TEAE: Somnolence [3]: ^0 n (%)
TEAE: Urticaria [3]: ^1 (9.1) n (%)
TEAE: Vascular disorders [3]: ^1 (9.1) n (%)
